Test system: 188146-221-R-J1-PDC complex spheroid viability
Assay: Anticancer human tumor 188146-221-R-J1-PDC patient-derived colon adenocarcinoma cell line growth inhibition [POLQ]
Conditions: for IC50: curve of first compound; for viability, T/C: stronger effect = lower value
How it was run: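 Complex spheroid viability model combining PDC tumour cells with endothelial (HUVEC) and MSC stromal cells. Novobiocin, ART-558 or RP6685 were tested singly and in combination with standard and investigational anticancer drugs. Each was titrated in half-log steps from near clinical Cmax, or from 10 microM where Cmax was unknown.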

[1] = second compound 0.0316 µM, first compound 0.0316 µM
[2] = second compound 0.0316 µM, first compound 0.1 µM
[3] = second compound 0.0316 µM, first compound 0.316 µM
[4] = second compound 0.0316 µM, first compound 1 µM
[5] = second compound 0.0316 µM, first compound 3.16 µM
[6] = second compound 0.0316 µM, first compound 10 µM
[7] = second compound 0.1 µM, first compound 0.0316 µM
[8] = second compound 0.1 µM, first compound 0.1 µM
[9] = second compound 0.1 µM, first compound 0.316 µM
[10] = second compound 0.1 µM, first compound 1 µM
[11] = second compound 0.1 µM, first compound 3.16 µM
[12] = second compound 0.1 µM, first compound 10 µM
[13] = second compound 0.316 µM, first compound 0.0316 µM
[14] = second compound 0.316 µM, first compound 0.1 µM
[15] = second compound 0.316 µM, first compound 0.316 µM
[16] = second compound 0.316 µM, first compound 1 µM
[17] = second compound 0.316 µM, first compound 3.16 µM
[18] = second compound 0.316 µM, first compound 10 µM
[19] = second compound 1 µM, first compound 0.0316 µM
[20] = second compound 1 µM, first compound 0.1 µM
[21] = second compound 1 µM, first compound 0.316 µM
[22] = second compound 1 µM, first compound 1 µM
[23] = second compound 1 µM, first compound 3.16 µM
[24] = second compound 1 µM, first compound 10 µM
[25] = second compound 3.16 µM, first compound 0.0316 µM
[26] = second compound 3.16 µM, first compound 0.1 µM
[27] = second compound 3.16 µM, first compound 0.316 µM
[28] = second compound 3.16 µM, first compound 1 µM
[29] = second compound 3.16 µM, first compound 3.16 µM
[30] = second compound 3.16 µM, first compound 10 µM
[31] = second compound 10 µM, first compound 0.0316 µM
[32] = second compound 10 µM, first compound 0.1 µM
[33] = second compound 10 µM, first compound 0.316 µM
[34] = second compound 10 µM, first compound 1 µM
[35] = second compound 10 µM, first compound 3.16 µM
[36] = second compound 10 µM, first compound 10 µM
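Note: spheroids exposed to compounds for seven days.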
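Throughout, for viability, T/C: 100% = DMSO vehicle control viability.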

For `CC1COCCN1c1cc(-c2ccnn2C)c2ccnc(-c3ccn[nH]3)c2n1` (stereo not drawn) + Nc1ccc(C#CCN(C(=O)Cc2ncc(C(F)(F)F)cc2C(F)(F)F)c2ccc(F)cc2)nn1, the IC50 (second compound 0.0316 µM) was 0.177 µM, the IC50 (second compound 0.1 µM) was 0.228 µM and the IC50 (second compound 0.316 µM) was 0.173 µM. It also gave an IC50 (second compound 1 µM) of 0.142 µM, an IC50 (second compound 3.16 µM) of 0.162 µM and an IC50 (second compound 10 µM) of 0.176 µM. For the same molecule, the viability, T/C [1] was 84.9%, the viability, T/C [2] was 63.2% and the viability, T/C [3] was 36.3%. For the same molecule, the viability, T/C [4] was 22.6%, the viability, T/C [5] was 16.3% and the viability, T/C [6] was 14.5%. It also gave a viability, T/C [7] of 86.4%, a viability, T/C [8] of 72.8% and a viability, T/C [9] of 40.3%. The viability, T/C [10] was 22.3%, the viability, T/C [11] was 17.2% and the viability, T/C [12] was 12.9%. The viability, T/C [13] was 80%, the viability, T/C [14] was 61.1% and the viability, T/C [15] was 38.3%. For the same molecule, the viability, T/C [16] was 20%, the viability, T/C [17] was 14.1% and the viability, T/C [18] was 15.8%. For the same molecule, the viability, T/C [19] was 96.3%, the viability, T/C [20] was 54% and the viability, T/C [21] was 40.2%. It also gave a viability, T/C [22] of 19.2%, a viability, T/C [23] of 16.2% and a viability, T/C [24] of 15%. It also gave a viability, T/C [25] of 89.7%, a viability, T/C [26] of 56.7% and a viability, T/C [27] of 42.6%. The viability, T/C [28] was 19.6%, the viability, T/C [29] was 17.4% and the viability, T/C [30] was 14.2%. For the same molecule, the viability, T/C [31] was 77.3%, the viability, T/C [32] was 66.1% and the viability, T/C [33] was 33.2%. For the same molecule, the viability, T/C [34] was 19.8%, the viability, T/C [35] was 18.6% and the viability, T/C [36] was 14.7%.

Molecule `CC1COCCN1c1cc(C2(S(C)(=N)=O)CC2)nc(-c2ccnc3[nH]ccc23)n1` (stereo not drawn) + Nc1ccc(C#CCN(C(=O)Cc2ncc(C(F)(F)F)cc2C(F)(F)F)c2ccc(F)cc2)nn1 has an IC50 (second compound 0.0316 µM) of 4.63 µM, an IC50 (second compound 0.1 µM) of 4.5 µM and an IC50 (second compound 0.316 µM) of 4.59 µM. It also gave an IC50 (second compound 1 µM) of 4.55 µM, an IC50 (second compound 3.16 µM) of 4.66 µM and an IC50 (second compound 10 µM) of 4.11 µM. For the same molecule, the viability, T/C [1] was 105%, the viability, T/C [2] was 110% and the viability, T/C [3] was 95.7%. It also gave a viability, T/C [4] of 100%, a viability, T/C [5] of 61.2% and a viability, T/C [6] of 27.2%. The viability, T/C [7] was 106%, the viability, T/C [8] was 92.6% and the viability, T/C [9] was 109%. It also gave a viability, T/C [10] of 92.1%, a viability, T/C [11] of 60.5% and a viability, T/C [12] of 26.9%. It also gave a viability, T/C [13] of 110%, a viability, T/C [14] of 109% and a viability, T/C [15] of 99.7%. It also gave a viability, T/C [16] of 101%, a viability, T/C [17] of 61.9% and a viability, T/C [18] of 24.8%. It also gave a viability, T/C [19] of 95.1%, a viability, T/C [20] of 89.7% and a viability, T/C [21] of 111%. For the same molecule, the viability, T/C [22] was 89.2%, the viability, T/C [23] was 63.3% and the viability, T/C [24] was 22.2%. The viability, T/C [25] was 103%, the viability, T/C [26] was 109% and the viability, T/C [27] was 93.3%. It also gave a viability, T/C [28] of 82.7%, a viability, T/C [29] of 65.3% and a viability, T/C [30] of 24.1%. It also gave a viability, T/C [31] of 107%, a viability, T/C [32] of 99.6% and a viability, T/C [33] of 101%. The viability, T/C [34] was 90%, the viability, T/C [35] was 58.1% and the viability, T/C [36] was 22.1%.

`CCCS(=O)(=O)Nc1ccc(F)c(C(=O)c2c[nH]c3ncc(-c4ccc(Cl)cc4)cc23)c1F` + Nc1ccc(C#CCN(C(=O)Cc2ncc(C(F)(F)F)cc2C(F)(F)F)c2ccc(F)cc2)nn1 was tested, and the IC50 (second compound 0.0316 µM) was 6.67 µM, the IC50 (second compound 0.1 µM) was 6.11 µM and the IC50 (second compound 0.316 µM) was 6.9 µM. For the same molecule, the IC50 (second compound 1 µM) was 6.33 µM, the IC50 (second compound 3.16 µM) was 6.27 µM and the IC50 (second compound 10 µM) was 6.54 µM. For the same molecule, the viability, T/C [1] was 104%, the viability, T/C [2] was 116% and the viability, T/C [3] was 101%. The viability, T/C [4] was 84.7%, the viability, T/C [5] was 85.3% and the viability, T/C [6] was 33.6%. The viability, T/C [7] was 119%, the viability, T/C [8] was 98.2% and the viability, T/C [9] was 103%. It also gave a viability, T/C [10] of 89.2%, a viability, T/C [11] of 81.9% and a viability, T/C [12] of 29%. It also gave a viability, T/C [13] of 94.4%, a viability, T/C [14] of 99.6% and a viability, T/C [15] of 101%. For the same molecule, the viability, T/C [16] was 88.7%, the viability, T/C [17] was 93.8% and the viability, T/C [18] was 29.2%. The viability, T/C [19] was 95.9%, the viability, T/C [20] was 96.7% and the viability, T/C [21] was 88.9%. It also gave a viability, T/C [22] of 76.8%, a viability, T/C [23] of 80.2% and a viability, T/C [24] of 33%. The viability, T/C [25] was 98.5%, the viability, T/C [26] was 104% and the viability, T/C [27] was 104%. The viability, T/C [28] was 77.2%, the viability, T/C [29] was 84% and the viability, T/C [30] was 30.6%. It also gave a viability, T/C [31] of 116%, a viability, T/C [32] of 112% and a viability, T/C [33] of 103%. The viability, T/C [34] was 91.5%, the viability, T/C [35] was 82.5% and the viability, T/C [36] was 33.1%.

For `Cn1ncnc1[C@H]1c2n[nH]c(=O)c3cc(F)cc(c23)N[C@@H]1c1ccc(F)cc1` + Nc1ccc(C#CCN(C(=O)Cc2ncc(C(F)(F)F)cc2C(F)(F)F)c2ccc(F)cc2)nn1, the IC50 (second compound 0.0316 µM) was > 0.1 µM, the IC50 (second compound 0.1 µM) was > 0.1 µM and the IC50 (second compound 0.316 µM) was > 0.1 µM. For the same molecule, the IC50 (second compound 1 µM) was > 0.1 µM, the IC50 (second compound 3.16 µM) was > 0.1 µM and the IC50 (second compound 10 µM) was > 0.1 µM. It also gave a viability, T/C (second compound 0.0316 µM, first compound 0.000316 µM) of 92%, a viability, T/C (second compound 0.0316 µM, first compound 0.001 µM) of 109% and a viability, T/C (second compound 0.0316 µM, first compound 0.00316 µM) of 98.2%. It also gave a viability, T/C (second compound 0.0316 µM, first compound 0.01 µM) of 116%, a viability, T/C [1] of 98.7% and a viability, T/C [2] of 93.2%. The viability, T/C (second compound 0.1 µM, first compound 0.000316 µM) was 111%, the viability, T/C (second compound 0.1 µM, first compound 0.001 µM) was 104% and the viability, T/C (second compound 0.1 µM, first compound 0.00316 µM) was 108%. For the same molecule, the viability, T/C (second compound 0.1 µM, first compound 0.01 µM) was 102%, the viability, T/C [7] was 100% and the viability, T/C [8] was 96%. The viability, T/C (second compound 0.316 µM, first compound 0.000316 µM) was 102%, the viability, T/C (second compound 0.316 µM, first compound 0.001 µM) was 103% and the viability, T/C (second compound 0.316 µM, first compound 0.00316 µM) was 96.7%. For the same molecule, the viability, T/C (second compound 0.316 µM, first compound 0.01 µM) was 93.8%, the viability, T/C [13] was 112% and the viability, T/C [14] was 98.9%. For the same molecule, the viability, T/C (second compound 1 µM, first compound 0.000316 µM) was 100%, the viability, T/C (second compound 1 µM, first compound 0.001 µM) was 107% and the viability, T/C (second compound 1 µM, first compound 0.00316 µM) was 109%. For the same molecule, the viability, T/C (second compound 1 µM, first compound 0.01 µM) was 94.5%, the viability, T/C [19] was 95.2% and the viability, T/C [20] was 97.2%. It also gave a viability, T/C (second compound 3.16 µM, first compound 0.000316 µM) of 106%, a viability, T/C (second compound 3.16 µM, first compound 0.001 µM) of 99.3% and a viability, T/C (second compound 3.16 µM, first compound 0.00316 µM) of 95.9%. The viability, T/C (second compound 3.16 µM, first compound 0.01 µM) was 91.7%, the viability, T/C [25] was 95.8% and the viability, T/C [26] was 93%. It also gave a viability, T/C (second compound 10 µM, first compound 0.000316 µM) of 108%, a viability, T/C (second compound 10 µM, first compound 0.001 µM) of 95.3% and a viability, T/C (second compound 10 µM, first compound 0.00316 µM) of 116%. For the same molecule, the viability, T/C (second compound 10 µM, first compound 0.01 µM) was 119%, the viability, T/C [31] was 109% and the viability, T/C [32] was 90.1%.

Source: PubChem BioAssay AID1963851 (Molecular Pharmacology Branch, DTP, NCI, 2024)
